Calls of active or inactive are those of the source. The rule behind the calls is not given here.
How the values were obtained:
Histone deacetylase 7 = molecular target: T1, Histone deacetylase 7 (Homo sapiens, UniProt Q8WUI4); experiment: Inhibition of HDAC7 derived from human HeLa cell extract using Ac-Leu-Gly-Lys (Ac)-AMC as substrate by fluorescence based assay; assay type: cell-free
T1 sequence (Q8WUI4 whole entry): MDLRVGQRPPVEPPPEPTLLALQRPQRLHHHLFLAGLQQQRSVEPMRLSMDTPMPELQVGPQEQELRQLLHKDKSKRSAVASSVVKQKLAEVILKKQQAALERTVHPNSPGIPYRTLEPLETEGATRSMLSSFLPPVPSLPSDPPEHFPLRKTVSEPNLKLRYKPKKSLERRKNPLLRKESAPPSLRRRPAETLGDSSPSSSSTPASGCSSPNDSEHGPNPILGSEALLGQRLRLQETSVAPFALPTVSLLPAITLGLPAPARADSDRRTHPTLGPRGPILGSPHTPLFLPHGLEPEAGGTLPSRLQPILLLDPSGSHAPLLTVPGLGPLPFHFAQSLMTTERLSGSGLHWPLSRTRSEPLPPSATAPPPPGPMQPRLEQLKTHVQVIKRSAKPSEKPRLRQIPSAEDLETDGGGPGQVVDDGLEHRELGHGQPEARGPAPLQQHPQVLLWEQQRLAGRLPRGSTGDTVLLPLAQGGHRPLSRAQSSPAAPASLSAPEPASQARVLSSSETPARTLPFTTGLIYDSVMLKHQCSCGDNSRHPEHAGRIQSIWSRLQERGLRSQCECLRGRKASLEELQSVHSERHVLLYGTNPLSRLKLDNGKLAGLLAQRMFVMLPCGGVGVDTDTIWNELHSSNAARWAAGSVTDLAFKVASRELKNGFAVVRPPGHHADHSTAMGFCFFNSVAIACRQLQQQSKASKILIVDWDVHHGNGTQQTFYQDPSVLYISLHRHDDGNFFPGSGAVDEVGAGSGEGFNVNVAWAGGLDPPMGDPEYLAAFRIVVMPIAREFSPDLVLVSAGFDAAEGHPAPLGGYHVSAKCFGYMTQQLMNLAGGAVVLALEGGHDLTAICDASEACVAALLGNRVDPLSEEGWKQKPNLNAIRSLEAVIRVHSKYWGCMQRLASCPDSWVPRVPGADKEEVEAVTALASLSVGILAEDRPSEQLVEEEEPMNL

[1] = Toxicity in ICR mouse allografted with mouse H22 cells assessed as toxic sign in lung at 10 to 20 mg/kg, iv qd for 17 days consecutively by H and E staining based analysis; assay type: organism-based; conditions: in vivo, dose 10-20 mg/kg, time 17 day
K562 [2] = experiment: Induction of cell cycle arrest at G1 phase in human K562 cells at 4 nM incubated for 48 hrs by PI staining based flow cytometry (reference value: 62.08 +/- 0.40 %); assay type: functional
MCF7 = experiment: cells; conditions: Homo sapiens, MCF7, 72 h
Description: Antiproliferative activity against human MCF7 cells incubated for 72 hrs by MTT assay

H22 = experiment: Antitumor activity against mouse H22 cells allografted in ICR mouse assessed as decrease in tumor weight at 10 to 20 mg/kg, iv qd for 17 days consecutively; assay type: functional, organism-based; conditions: dose 10-20 mg/kg, time 17.0 day
MDA-MB-231 = experiment: cells; conditions: Homo sapiens, MDA-MB-231, 72 h
Description: Antiproliferative activity against human MDA-MB-231 cells incubated for 72 hrs by MTT assay

Tubulin = experiment: Inhibition of tubulin (unknown origin) polymerization measured for 60 mins by absorbance based assay; assay type: protein-complex assay, Homo sapiens
K562 [3] = experiment: Induction of apoptosis in human K562 cells assessed as late apoptotic cells at 4 nM incubated for 48 hrs by Annexin V/PI staining based flow cytometry (reference value: 3.37 +/- 0.21 %); assay type: functional
K562 [4] = experiment: Induction of apoptosis in human K562 cells assessed as necrotic cells at 2 nM incubated for 48 hrs by Annexin V/PI staining based flow cytometry (reference value: 2.56 +/- 0.22 %); assay type: functional
[5] = Antiproliferative activity against human HFL1 cells incubated for 72 hrs by MTT assay; assay type: toxicity, cell-based
K562 [6] = experiment: Induction of apoptosis in human K562 cells assessed as viable cells at 4 nM incubated for 48 hrs by Annexin V/PI staining based flow cytometry (reference value: 92.52 +/- 0.34 %); assay type: functional; conditions: read-out: Activity
K562 [7] = experiment: Effect on cell cycle in human K562 cells assessed as decrease in Cdc2 level incubated for 24 hrs by Western blot analysis; assay type: functional, cell-based; conditions: dose 2-8 nM
K562 [8] = experiment: Induction of cell cycle arrest at G2 phase in human K562 cells at 8 nM incubated for 48 hrs by PI staining based flow cytometry (Rvb =15.36 +/- 0.46 %); assay type: functional

C=C(c1ccc(OC)c(OC(F)C(=O)NO)c1)c1cc(C)nc2ccccc12 (stereo not drawn)
IC50 (Histone deacetylase 7): > 10000 nM
Activity [1]: Non-Toxic
Activity (K562 [2]): 49.35%
IC50 (MCF7): 36 nM
Activity (H22): Active
IC50 (MDA-MB-231): 11 nM
IC50 (Tubulin): 3840 nM
Activity (K562 [3]): 8.7%
Activity (K562 [4]): 0.36%
IC50 at 72 h [5]: 230 nM
viability at 0.004 µM (K562 [6]): 66.6%
Activity (K562 [7]): Dose-Dependent Effect
Activity (K562 [8]): 27.87%
